The species entered for experiment [1] is Rattus norvegicus. Description: Inhibition of rat intestinal alpha-glucosidase using 7-O-alpha-D-glucopyranosyl 4-methylumbelliferone preincubated for 15 mins at 200 uM prior substrate addition measured over 30 mins by fluorescence assay.
The species entered for experiment [2] is Rattus norvegicus. Description: Inhibition of rat intestinal alpha-glucosidase using 7-O-alpha-D-glucopyranosyl 4-methylumbelliferone preincubated for 15 mins at 100 to 400 uM prior substrate addition measured over 30 mins by fluorescence assay.
A further experiment has as its system 3T3-L1. Description: Increase in [3H]-2-DOG uptake in mouse 3T3L1 cells at 0.001 to 100 uM after 3 hrs by liquid scintillation counting relative to vehicle-treated control.
In a further experiment the test system is HepG2/C3A. The experiment is described as follows: Increase in [3H]-2-DOG uptake in human HepG2/C3A cells at 0.001 to 100 uM after 3 hr by liquid scintillation counting relative to vehicle-treated control.
The next experiment concerns L6. Description: Increase in [3H]-2-DOG uptake in rat L6 cells at 10 uM after 1 hr by liquid scintillation counting relative to vehicle-treated control. It counts as functional.
The species named for experiment [3] is Rattus norvegicus. Description: Inhibition of rat intestinal alpha-glucosidase using 7-O-alpha-D-glucopyranosyl 4-methylumbelliferone preincubated for 15 mins at 50 to 200 uM prior substrate addition measured over 30 mins by fluorescence assay.

SMILES strings stand for the structures. The source made the active and inactive calls. The calls are words filed in the database; no cut-off is given here.

Broadly, the inhibition is the change of the read-out against control, counted positive when it falls. With `O=C(c1ccc(O)c(O)c1)c1c(O)cc(O)c([C@@H]2O[C@H](CO)[C@@H](O)[C@H](O)[C@H]2O)c1O`, the inhibition in the experiment listed under Rattus norvegicus [1] amounted to 54%.

For the compound `O=C(c1ccc(O)cc1)c1c(O)cc(O)c([C@@H]2O[C@H](CO)[C@@H](O)[C@H](O)[C@H]2O)c1O`, the inhibition result in the experiment listed under Rattus norvegicus [2] was “Active”. Moreover, the outcome with 3T3-L1 and in the experiment with HepG2/C3A was Active.

`O=C(c1ccc(O)cc1)c1c(O)cc(O[C@@H]2O[C@H](CO)[C@@H](O)[C@H](O)[C@H]2O)c([C@@H]2O[C@H](CO)[C@@H](O)[C@H](O)[C@H]2O)c1O`: the inhibition result in the experiment listed under Rattus norvegicus [2] is “Active”. In the experiment with L6, this compound showed an Activity of 22%. Besides, in the experiment listed under Rattus norvegicus [1], the inhibition amounted to 43%. The outcome in the experiment on 3T3-L1 and in the experiment on HepG2/C3A was Active.

As for `O=C(c1ccc(O)c(O)c1)c1c(O)cc(O)cc1O`, in the experiment listed under Rattus norvegicus [3], the inhibition result is “inactive”.

Values taken from ChEMBL document CHEMBL3351554, “Benzophenone C- and O-glucosides from Cyclopia genistoides (Honeybush) inhibit mammalian α-glucosidase” (2014).
